Values joined by “and” are separate entries in the source; they are usually repeats but may differ in a detail not shown here. Equal entries are not always repeated.
How the values were obtained:
[1] = biological target: T1, Serine/threonine-protein kinase mTOR (Homo sapiens, UniProt P42345); experiment: Displacement of Alexa Fluor labelled Tracer-314 from human N-terminal GST-tagged mTOR incubated for 1 hr by TR-FRET assay
cells = details: Rattus norvegicus, Rat1, 1 h
[2] = biological target: T1, Serine/threonine-protein kinase mTOR; experiment: Binding affinity to human N-terminal GST-tagged mTOR assessed as phosphorylated 4EBP1 by TR-FRET assay
Tubulin (Homo sapiens) [3] = biological target: T2, Tubulin (Homo sapiens) (UniProt P68371+Q9H4B7+P0DPH7+P68366+Q13509+Q71U36+P04350+Q3ZCM7+P07437+P68363+Q9BQE3+Q6PEY2+Q13885+Q9BVA1+Q9BUF5); experiment: Binding affinity to tubulin in human A2058 cells assessed as condensed DNA score at 5 uM measured after 6 hrs by DiffQuick staining based microscopic analysis; assay type: cell-based
Tubulin (Homo sapiens) [4] = biological target: T2, Tubulin (Homo sapiens); experiment: Binding affinity to tubulin in human A2058 cells assessed as condensed DNA score at 5 uM measured after 24 hrs by DiffQuick staining based microscopic analysis; assay type: cell-based
[5] = Stability in rat liver microsomes assessed as hepatic extraction preincubated for 3 mins followed by NADPH addition and measured after 60 mins; assay type: ADME, Microsome; details: read-out: ERH
[6] = Stability in human liver microsomes assessed as hepatic extraction preincubated for 3 mins followed by NADPH addition and measured after 60 mins; assay type: ADME, Microsome; details: read-out: ERH
[7] = Volume of distribution at steady state in Sprague-Dawley rat at 3 mg/kg, po or iv measured upto 24 hrs by LC-MS/MS analysis; assay type: ADME, organism-based; details: in vivo
[8] = Half life in Sprague-Dawley rat at 3 mg/kg, po or iv measured upto 24 hrs by LC-MS/MS analysis; assay type: ADME, organism-based; details: in vivo
[9] = AUC in Sprague-Dawley rat at 1 mg/kg, iv measured for 0.083 to 48 hrs by LC-MS/MS analysis; assay type: ADME, organism-based; design: time upper 48 hrs, dose 1 mg/kg, time lower 0.083 hrs, route iv; details: in vivo
[10] = Oral bioavailability in Sprague-Dawley rat at 3 mg/kg measured for 0.25 to 24 hrs by LC-MS/MS analysis; assay type: ADME, organism-based; details: in vivo, time 0.25-24 hrs
[11] = 1-octanol, logP of the compound at pH 7.4; assay type: physicochemical
[12] = Brain to blood ratio in OF1 mouse at 1 mg/kg, iv measured at 5 mins post dose by LC-MS/MS analysis; assay type: ADME, organism-based; details: brain and blood, read-out: BBR
[13] = Brain to blood ratio in OF1 mouse at 1 mg/kg, iv measured at 1 hr post dose by LC-MS/MS analysis; assay type: ADME, organism-based; details: brain and blood, read-out: BBR

Structure (SMILES)	IC50 [1]	IC50 (cells) [nM]	Kp at 5 min [12]	Kp at 1 h [13]	further results
C[C@H](O)[C@@H]1COC(=O)N1c1nc(-c2cnc(N)nc2C(F)(F)F)cc(N2CCOCC2)n1	1340 nM	83	–	–	–
C[C@H]1OC(=O)N(c2nc(-c3cnc(N)nc3C(F)(F)F)cc(N3CCOCC3)n2)[C@H]1CN1CC[S+]([O-])CC1	–	> 10000	–	–	–
Nc1ncc(-c2cc(N3CCOCC3)nc(N3CCOCC3)n2)c(C(F)(F)F)n1	2070 nM	191	–	–	IC50 [2]: 6310 nM; Activity (Tubulin (Homo sapiens) [3]): > 12%; Activity (Tubulin (Homo sapiens) [4]): > 12%
C[C@]1(CO)COC(=O)N1c1nc(-c2cnc(N)nc2C(F)(F)F)cc(N2CCOCC2)n1	3610 nM	172	–	–	–
Nc1ncc(-c2cc(N3CCOCC3)nc(N3CCOCC3)n2)c(=O)[nH]1	–	481	–	–	IC50 [2]: 440 nM; Activity (Tubulin (Homo sapiens) [3]): < 2%; Activity (Tubulin (Homo sapiens) [4]): < 2%
Nc1ncc(-c2cc(N3CCOCC3)nc(N3C(=O)OC[C@@H]3CO)n2)c(C(F)(F)F)n1	3880 nM	63	–	–	–
C[C@H]1[C@H](CO)OC(=O)N1c1nc(-c2cnc(N)nc2C(F)(F)F)cc(N2CCOCC2)n1	5110 nM	63	–	–	–
C[C@H]1[C@@H](CO)OC(=O)N1c1nc(-c2cnc(N)nc2C(F)(F)F)cc(N2CCOCC2)n1	1720 nM	30	–	–	–
N#Cc1cc(N)ncc1-c1cc(N2CCOC(CCO)C2)nc(N2CCOCC2)n1 (racemic)	–	2520	0.2	0.12	–
COc1ccc2c(c1)OCCN2c1cc(-c2cnc(N)nc2)nc(N2CCOCC2)n1	–	239	3.23	1.91	IC50 [2]: > 9100 nM; Activity (Tubulin (Homo sapiens) [3]): > 12%; Activity (Tubulin (Homo sapiens) [4]): 6%

Second part, led by results:

IC50 [1]	IC50 (cells) [nM]	Kp at 5 min [12]	Kp at 1 h [13]	Structure (SMILES)	further results
9100 nM and > 9100 nM	5220	–	–	Nc1cc(C(F)(F)F)c(-c2cc(N3CCS(=O)(=O)CC3)nc(N3CCOCC3)n2)cn1	IC50 [2]: > 9100 nM; Activity (Tubulin (Homo sapiens) [3]): < 2%; Activity (Tubulin (Homo sapiens) [4]): < 2%
2580 nM	37	–	–	C[C@@H]1OC(=O)N(c2nc(-c3cnc(N)nc3C(F)(F)F)cc(N3CCOCC3)n2)[C@H]1CO	hepatic extraction ratio at 1 h [5]: 0.49; hepatic extraction ratio at 1 h [6]: 0.78; Vdss [7]: 3.9 L/kg; half-life [8]: 5.2 h; AUC [9]: 0.708 µM·h; bioavailability [10]: 23%
6800 nM	1070	–	–	Nc1cc(C(F)(F)F)c(-c2cc(N3CCOC3=O)nc(N3CCOCC3)n2)cn1	logD [11]: 2.7
–	1760	0.11	0.11	C[C@H]1COC(=O)N1c1nc(-c2cnc(N)cc2C(F)(F)F)cc(N2CCOCC2)n1	–
–	2770	4.89	3.73	Nc1cc(C(F)(F)F)c(-c2cc(N3CCOC(c4ccccc4)C3)nc(N3CCOCC3)n2)cn1 (racemic)	–
–	3660	0.23	0.12	CNC(=O)N(CCO)c1cc(-c2cnc(N)cc2C(F)(F)F)nc(N2CCOCC2)n1	–
4970 nM	267	–	–	Nc1cc(C(F)(F)F)c(-c2cc(N3CCCC3=O)nc(N3CCOCC3)n2)cn1	logD [11]: 2.1
–	1300	1.1	0.86	CNC(=O)N(C)c1cc(-c2cnc(N)cc2C(F)(F)F)nc(N2CCOCC2)n1	–
